Reference: US11339151B2, “Aliphatic acid amide derivative” (Sumitomo Dainippon Pharma Co., Ltd., priority 2019, dated 2022)
pIC50, pKi: −log10 of the molar value.

What was measured:
hERG channel = hERG channel (Homo sapiens (Human), UniProt Q12809); assay: Test 5: inhibitory activity for hERG channel (whole cell patch clamp, hERG-CHO cells); format: cell-based; conditions: hERG-CHO cells, auto patch clamp
Protocol: Test 5: Evaluation of Inhibitory Activity for hERG Channel
Inhibitory activity of the present compound for hERG channel was measured by whole cell patch clamp method with an auto patch clamp system using CHO cells in which hERG channel involved in human rapidly activating delayed rectifier potassium current (IKr) was forcibly expressed.
hERG-CHO cells purchased from ChanTest Cop. were cultured in a CO2 incubator at 37° C., and dissociated from a flask with trypsin shortly before the measurement of hERG current to prepare a cell suspension.
The cell suspension, the extracellular fluid, the intracellular fluid, and the measurement plate were set in an auto patch clamp system, and hERG current was measured by whole cell patch clamp method. […] Each pulse interval was 15 seconds. The data analysis was carried out with Qube Assay Software (Sophion Sophion). The test was carried out by applying incrementally 4 concentrations of each test compound, and the average of the maximum peak tail currents which were obtained from the last 3 stimulations in each concentration was determined as the evaluated data.

human 5-HT7 receptor [1] = target: T1, human 5-HT7 receptor (Homo sapiens (Human), UniProt P34969); assay: Test 2: antagonist activity for human 5-HT7 receptor (aequorin luminescence, CHO-K1 cells); format: cell-based; conditions: Gα16
T1 sequence (P34969 whole entry): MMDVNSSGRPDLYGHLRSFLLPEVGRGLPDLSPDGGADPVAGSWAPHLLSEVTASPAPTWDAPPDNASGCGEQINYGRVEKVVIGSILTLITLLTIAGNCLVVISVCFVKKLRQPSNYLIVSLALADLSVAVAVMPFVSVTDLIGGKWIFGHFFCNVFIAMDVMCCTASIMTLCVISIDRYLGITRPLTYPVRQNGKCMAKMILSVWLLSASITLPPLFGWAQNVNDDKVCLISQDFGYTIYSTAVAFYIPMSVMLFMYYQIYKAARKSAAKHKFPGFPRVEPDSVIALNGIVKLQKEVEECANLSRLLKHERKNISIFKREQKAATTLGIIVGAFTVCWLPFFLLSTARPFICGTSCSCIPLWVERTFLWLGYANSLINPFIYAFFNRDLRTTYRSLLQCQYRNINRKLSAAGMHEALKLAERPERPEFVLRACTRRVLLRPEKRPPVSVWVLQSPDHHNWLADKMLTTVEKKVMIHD
Protocol: Test 2: Evaluation of Antagonist Activity for Human 5-HT2A Receptor and Human 5-HT7 Receptor
Aequorin, Gα 16 protein, and each receptor were transiently expressed in CHO-K1 cells (Chinese hamster ovary). The cells were cultivated in a CO2 incubator at 37° C. overnight, seeded into a 384-well plate, and stood at room temperature for 2 hours. Each compound dissolved in DMSO was added thereto, and changes in luminescence were measured by FDSS/μCELL drug discovery screening support system (Hamamatsu Photonics K.K.). As for antagonist activity, inhibitory activity of each compound was calculated by setting the luminescence level of wells to which 10 μmol/L endogenous ligand was added as 100%.

human 5-HT7 receptor [2] = target: T1, human 5-HT7 receptor; assay: Test 1: binding activity for human 5-HT7 receptor ([3H]SB-269970, CHO cell membrane fraction); conditions: [3H]SB-269970, room temperature 60 minutes
Protocol: (§1) Ki value was evaluated from dissociation constant which was calculated from saturated binding tests, and a substrate concentration, and it was used as an index for binding affinity.

human D2 receptor = human D2 receptor (Homo sapiens (Human), UniProt P14416); assay: Test 1: binding activity for human D2 receptor ([3H]Spiperone, CHO cell membrane fraction); conditions: [3H]Spiperone, room temperature 60 minutes
Sequence of human D2 receptor (P14416 whole entry): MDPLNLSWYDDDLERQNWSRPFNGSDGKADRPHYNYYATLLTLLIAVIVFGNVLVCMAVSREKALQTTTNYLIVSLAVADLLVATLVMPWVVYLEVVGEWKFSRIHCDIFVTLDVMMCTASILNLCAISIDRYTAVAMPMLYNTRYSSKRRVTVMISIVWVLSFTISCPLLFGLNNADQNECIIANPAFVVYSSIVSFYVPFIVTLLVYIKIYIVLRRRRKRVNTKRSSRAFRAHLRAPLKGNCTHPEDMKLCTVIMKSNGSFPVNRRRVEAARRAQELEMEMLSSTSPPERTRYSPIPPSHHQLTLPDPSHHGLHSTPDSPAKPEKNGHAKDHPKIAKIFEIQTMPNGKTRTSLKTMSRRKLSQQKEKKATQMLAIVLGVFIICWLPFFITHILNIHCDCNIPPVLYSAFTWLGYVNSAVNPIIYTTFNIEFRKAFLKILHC
Protocol: as §1

[3] = Test 3-1: metabolic stability test in human hepatic microsome; format: in vitro ADME; conditions: microsome 0.1 mg/mL, test compound 0.1 μmol/L, 37° C., 30 minutes
Protocol: Test 3-1: Metabolic Stability Test in Human Hepatic Microsome
The metabolic stability of the present compound in human hepatic microsome was evaluated as mentioned below. Human hepatic microsome was obtained from Xenontech. Human hepatic microsome, NADPH, and each test compound were mixed in 25 mmol/L phosphate buffer solution (pH 7.4) to reach the following concentrations as shown below, and the mixture was incubated at 37° C. for 30 minutes. • Human hepatic microsome: 0.1 mg/mL • NADPH: 3.2 mmol/L • Test compound: 0.1 μmol/L
The residual ratio of test compound in each sample after 30 minutes was measured by LC-MS, and the metabolic stability in human hepatic microsome was calculated from the following formula. Metabolic stability in human hepatic microsome (mL/min/mg protein)=−LN (residual ratio)/30/0.1

Sequence of hERG channel (Q12809 whole entry): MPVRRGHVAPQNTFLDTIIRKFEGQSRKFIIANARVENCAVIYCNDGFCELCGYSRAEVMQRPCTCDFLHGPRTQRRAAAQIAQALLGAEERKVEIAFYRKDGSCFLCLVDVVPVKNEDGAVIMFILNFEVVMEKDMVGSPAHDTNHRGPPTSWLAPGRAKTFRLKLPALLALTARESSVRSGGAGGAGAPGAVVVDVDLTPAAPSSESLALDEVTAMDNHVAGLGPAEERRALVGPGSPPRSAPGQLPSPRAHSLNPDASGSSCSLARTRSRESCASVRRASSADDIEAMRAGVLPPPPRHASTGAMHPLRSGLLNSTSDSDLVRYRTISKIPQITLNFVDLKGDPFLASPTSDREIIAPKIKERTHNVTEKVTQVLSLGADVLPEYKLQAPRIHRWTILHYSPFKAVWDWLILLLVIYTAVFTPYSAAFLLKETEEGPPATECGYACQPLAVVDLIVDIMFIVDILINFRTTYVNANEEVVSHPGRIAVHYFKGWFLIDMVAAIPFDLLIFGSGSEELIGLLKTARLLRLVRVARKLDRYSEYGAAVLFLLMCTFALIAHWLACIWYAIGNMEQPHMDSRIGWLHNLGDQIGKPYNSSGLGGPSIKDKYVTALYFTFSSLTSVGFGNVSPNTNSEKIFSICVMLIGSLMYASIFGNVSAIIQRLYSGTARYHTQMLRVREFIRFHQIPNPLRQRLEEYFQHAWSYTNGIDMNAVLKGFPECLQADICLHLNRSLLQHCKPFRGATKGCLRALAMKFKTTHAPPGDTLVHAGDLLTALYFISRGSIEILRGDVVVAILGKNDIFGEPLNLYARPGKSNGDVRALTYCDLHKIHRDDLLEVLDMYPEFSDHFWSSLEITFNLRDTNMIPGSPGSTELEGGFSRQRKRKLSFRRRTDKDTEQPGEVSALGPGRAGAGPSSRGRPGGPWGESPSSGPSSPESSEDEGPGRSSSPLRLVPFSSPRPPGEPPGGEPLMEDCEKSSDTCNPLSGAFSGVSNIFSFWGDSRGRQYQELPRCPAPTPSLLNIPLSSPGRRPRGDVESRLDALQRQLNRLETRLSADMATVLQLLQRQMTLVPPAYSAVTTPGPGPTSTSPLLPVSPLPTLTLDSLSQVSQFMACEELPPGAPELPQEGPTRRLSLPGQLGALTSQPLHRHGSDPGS

| Structure (SMILES) | pIC50 (human 5-HT7 receptor [1]) | pKi (human 5-HT7 receptor [2]) | pKi (human D2 receptor) | Metabolic stability in human hepatic microsome [3] | pIC50 (hERG channel) |
| --- | --- | --- | --- | --- | --- |
| CCN(CCCN1CCC(c2noc3cc(F)ccc23)CC1)S(=O)(=O)CCO [Example 53] | 7.36 | 8.85 | > 7.00 | <0.05 mL/min/mg protein | 5.14 |
| CCN(CCN1CCC(c2noc3cc(F)ccc23)CC1)C(=O)C1CN(C)CCC1O (stereo not drawn) [Example 76, N-Ethyl-N-{2-[4-(6-fluoro-1,2-benzoisoxazol-3-yl)piperidin-1-yl]ethyl}-4-hydroxy-1-methylpiperidine-3-carboxamide] | 7.19 | 7.84 | 6.71 | <0.05 mL/min/mg protein | < 5.00 |
| CC(O)C(=O)N(CCN1CCC(c2noc3cc(F)ccc23)CC1)CC1CC1 (stereo not drawn) [Example 30] | 7.41 | 8.18 | 6.82 | <0.05 mL/min/mg protein | 5.92 |
| CC(C)N(CCN1CCC(c2noc3cc(F)ccc23)CC1)C(=O)[C@@H](C)O [Example 42] | 8.05 | 8.60 | 7.13 | <0.05 mL/min/mg protein | 5.19 |
| CCN(CCN1CCC(c2noc3ccccc23)CC1)S(=O)(=O)CCO [Example 61] | 7.82 | 7.90 | 6.29 | <0.05 mL/min/mg protein | < 5.00 |
| CCN(CCCN1CCC(c2noc3cc(F)ccc23)CC1)C(=O)[C@H](C)O [Example 38] | 7.23 | 8.02 | 6.45 | <0.05 mL/min/mg protein | < 5.00 |
| CCN(CCN1CCC(c2noc3cc(F)ccc23)CC1)C(=O)C1CN(C(C)=O)CCC1O (stereo not drawn) [Example 74] | 7.11 | 8.17 | 6.86 | <0.05 mL/min/mg protein | 5.17 |
| CCN(CCN1CCC(c2noc3cc(F)ccc23)CC1)C(=O)C(O)C(F)(F)F (stereo not drawn) [Example 34] | 7.11 | 8.34 | 6.61 | <0.05 mL/min/mg protein | 5.14 |
| CCN(CCN1CCC(c2noc3ccc(C)cc23)CC1)S(=O)(=O)CCO [Example 59] | 7.21 | 7.87 | < 6.00 | 0.079 mL/min/mg protein | < 5.00 |
| CC(C)N(CCN1CCC(c2noc3cc(F)ccc23)CC1)C(=O)CCO [Example 35] | 7.09 | 8.42 | > 7.00 | <0.05 mL/min/mg protein | 5.37 |
| CCN(CCN1CCC(c2c[nH]c3ccccc23)CC1)C(=O)[C@@H](C)O [Example 49] | 7.80 | 7.65 | < 6.00 | <0.05 mL/min/mg protein | < 5.00 |
| CCN(CCN1CCC(c2noc3cc(F)ccc23)CC1)C(=O)C(C)(C)CO [Example 7] | 7.96 | 9.00 | 7.10 | 0.08 mL/min/mg protein | 5.46 |
| CCN(CCN1CCC(c2noc3ccccc23)CC1)C(=O)C(C)O (stereo not drawn) [Example 25] | 7.59 | 8.11 | 5.86 | <0.05 mL/min/mg protein | < 5.00 |
| CC(C)N(CCN1CCC(c2noc3cc(F)ccc23)CC1)C(=O)[C@H](C)O [Example 41] | 8.15 | 8.74 | > 7.00 | <0.05 mL/min/mg protein | 5.17 |
| CCN(CCN1CCC(n2ncc3cc(F)ccc32)CC1)S(=O)(=O)C(C)CO (stereo not drawn) [Example 64] | 7.00 | 8.62 | 6.46 | 0.097 mL/min/mg protein | < 5.00 |
| CCN(CCN1CCC(c2noc3ccc(F)cc23)CC1)C(=O)[C@H](C)O [Example 45] | 7.31 | 7.65 | < 6.52 | <0.05 mL/min/mg protein | < 5.00 |

Second part, led by results:

| pIC50 (human 5-HT7 receptor [1]) | pKi (human 5-HT7 receptor [2]) | pKi (human D2 receptor) | Metabolic stability in human hepatic microsome [3] | Structure (SMILES) | pIC50 (hERG channel) |
| --- | --- | --- | --- | --- | --- |
| 7.10 | 8.44 | 6.91 | <0.05 mL/min/mg protein | CCN(CCN1CCC(c2noc3cc(F)ccc23)CC1)C(=O)C1CN(C)CC1O (stereo not drawn) [Example 75, N-Ethyl-N-{2-[4-(6-fluoro-1,2-benzoisoxazol-3-yl)piperidin-1-yl]ethyl}-4-hydroxy-1-methylpyrrolidine-3-carboxamide] | 5.42 |
| 7.15 | 7.66 | < 5.00 | <0.05 mL/min/mg protein | CCN(CCN1CCN(c2noc3ccccc23)CC1)C(=O)C(C)O (stereo not drawn) [Example 26] | < 5.00 |
| 7.34 | 8.16 | 6.27 | <0.05 mL/min/mg protein | CCN(CCN1CCC(n2ncc3cc(F)ccc32)CC1)S(=O)(=O)CCO [Example 63] | 4.84 |
| 7.03 | 8.03 | < 6.00 | <0.05 mL/min/mg protein | CCN(CCN1CCC(n2ncc3cc(F)ccc32)CC1)C(=O)CCO [Example 2, N-Ethyl-N-{2-[4-(5-fluoro-1H-indazol-1-yl)piperidin-1-yl]ethyl}-3-hydroxypropanamide] | 5.13 |
| 8.22 | 9.40 | > 7.00 | <0.05 mL/min/mg protein | CCN(CCCN1CCC(c2noc3cc(F)ccc23)CC1)S(=O)(=O)C(C)CO (stereo not drawn) [Example 56] | 5.68 |
| 8.05 | 8.43 | 7.28 | <0.05 mL/min/mg protein | CCN(CCN1CCC(c2noc3cc(F)ccc23)CC1)C(=O)C1(O)CCNC1 (stereo not drawn) [Example 70] | < 5.00 |
| 8.05 | 8.57 | > 7.00 | <0.05 mL/min/mg protein | CCN(CCN1CCC(c2noc3cc(F)ccc23)CC1)C(=O)CC(C)O (stereo not drawn) [Example 10] | 5.44 |
| 8.10 | 8.21 | 6.53 | 0.108 mL/min/mg protein | CCN(CCN1CCC(c2noc3cc(F)ccc23)CC1)C(=O)C(O)C(C)C (stereo not drawn) [Example 8] | 5.38 |
| 7.00 | 8.59 | 6.84 | <0.05 mL/min/mg protein | CC[C@@H](O)C(=O)N(CC)CCN1CCC(c2noc3cc(F)ccc23)CC1 [Example 29] | 6.05 |
| 7.15 | 8.27 | 6.67 | <0.05 mL/min/mg protein | CCN(CCN1CCC(c2noc3cc(F)ccc23)CC1)C(=O)C1CNCC1O (stereo not drawn) [Example 66] | < 5.00 |
| 7.40 | 8.24 | 6.28 | <0.05 mL/min/mg protein | CCN(CCN1CCC(c2c[nH]c3ccccc23)CC1)C(=O)C(C)O (stereo not drawn) [Example 22, N-Ethyl-2-hydroxy-N-{2-[4-(1H-indol-3-yl)piperidin-1-yl]ethyl}propanamide] | < 5.00 |
| 7.19 | 8.92 | 7.05 | <0.05 mL/min/mg protein | CC(O)C(=O)N(CCN1CCC(c2noc3cc(F)ccc23)CC1)C(C)C (stereo not drawn) [Example 31] | 5.51 |
| 6.99 | 7.71 | < 6.00 | <0.05 mL/min/mg protein | CCN(CCN1CCC(c2noc3cc(F)c(C)cc23)CC1)S(=O)(=O)CCO [Example 58] | < 5.00 |
| 7.17 | 8.28 | > 7.00 | <0.05 mL/min/mg protein | CCN(CCN1CCC(c2noc3cc(F)ccc23)CC1)C(=O)C1(O)CCOCC1 [Example 11] | 4.98 |
